# Source: US7601333B2, “Use of a tetrapeptide AcSDKP (SEQ ID No. 1) analog resistant to the angiotensin I converting enzyme for measuring glomerular filtration rate in a human or an animal and kit containing same” (Assistance Publique-Hopitaux de Paris, priority 2003, dated 2009)
# “And” between values parts separate entries of the source, which are not always exact repeats. Identical values can stand only once. Like-named read-outs stand apart in the source and are kept apart here. Residues, ends and D or L forms follow the SMILES beside them.
# What was measured:
# human ACE [1] = biological target: human ACE (Homo sapiens, UniProt P12821); assay: In vitro degradation in the presence of human ACE; format: in vitro ADME; settings: in vitro
# Sequence of human ACE (Homo sapiens, UniProt P12821) (P12821 30-1306): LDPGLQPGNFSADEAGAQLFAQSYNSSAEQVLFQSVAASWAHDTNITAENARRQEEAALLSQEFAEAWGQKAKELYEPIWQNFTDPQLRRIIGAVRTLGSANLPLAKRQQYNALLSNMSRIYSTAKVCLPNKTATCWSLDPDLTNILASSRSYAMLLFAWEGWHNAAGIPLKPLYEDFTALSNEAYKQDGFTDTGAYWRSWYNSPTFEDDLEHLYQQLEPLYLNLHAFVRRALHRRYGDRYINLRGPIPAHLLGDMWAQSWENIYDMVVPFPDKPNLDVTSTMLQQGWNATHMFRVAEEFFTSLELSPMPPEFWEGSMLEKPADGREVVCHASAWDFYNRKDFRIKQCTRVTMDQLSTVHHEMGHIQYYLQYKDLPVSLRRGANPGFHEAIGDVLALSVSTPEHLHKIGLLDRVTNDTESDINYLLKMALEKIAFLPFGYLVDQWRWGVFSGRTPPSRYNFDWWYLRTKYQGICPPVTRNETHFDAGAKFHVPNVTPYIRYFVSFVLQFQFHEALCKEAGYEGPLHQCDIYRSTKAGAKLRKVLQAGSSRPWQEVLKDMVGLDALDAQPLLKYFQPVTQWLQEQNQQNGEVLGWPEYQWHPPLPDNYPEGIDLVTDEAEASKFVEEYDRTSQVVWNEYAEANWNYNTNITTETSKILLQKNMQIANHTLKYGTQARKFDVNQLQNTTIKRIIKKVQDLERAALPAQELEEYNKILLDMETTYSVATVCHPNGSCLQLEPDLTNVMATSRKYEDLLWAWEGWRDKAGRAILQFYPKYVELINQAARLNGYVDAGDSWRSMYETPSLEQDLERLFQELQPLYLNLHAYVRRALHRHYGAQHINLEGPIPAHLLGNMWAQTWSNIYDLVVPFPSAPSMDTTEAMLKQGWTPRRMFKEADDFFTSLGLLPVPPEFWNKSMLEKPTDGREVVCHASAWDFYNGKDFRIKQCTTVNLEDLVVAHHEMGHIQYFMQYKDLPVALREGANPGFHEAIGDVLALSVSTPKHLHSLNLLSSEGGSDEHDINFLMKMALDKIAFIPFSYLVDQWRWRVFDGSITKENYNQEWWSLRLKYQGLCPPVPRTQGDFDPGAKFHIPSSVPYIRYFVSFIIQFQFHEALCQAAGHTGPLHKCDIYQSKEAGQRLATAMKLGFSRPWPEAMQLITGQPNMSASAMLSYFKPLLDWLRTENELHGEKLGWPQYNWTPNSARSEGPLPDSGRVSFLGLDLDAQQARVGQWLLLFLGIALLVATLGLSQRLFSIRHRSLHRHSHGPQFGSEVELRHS
# Procedure: (§1) The peptides (100 nM) were incubated with ground rat lung material (at 0.1 mg/ml) or human converting enzyme (5 mU final concentration) in the presence or absence of captopril (10 μM final concentration) in 0.1 M Tris/HCl buffer+0.3 mM NaCl, pH=7.5. A control comprising only the peptides in the presence of 0.1 M Tris/HCl buffer+0.3 mM NaCl, pH=7.5, was carried out.
# (§2) A methanol extraction was carried out in order to stop the reaction. At each time, the concentration of the nondegraded peptide was measured by enzyme immunoassay.
# (§3) The results were expressed as percentage of peptide assayed relative to the control for each sample time.
# human ACE [2] = assay: In vitro degradation in the presence of human ACE; format: in vitro ADME; settings: human converting enzyme (human ACE), peptide 100 nM, human converting enzyme 5 mU, pH 7.5, read-out: percentage of peptide assayed relative to the control; for remaining at 10 min, 100 nM: T10 min; for remaining at 0.5 h, 100 nM: T30 min; for remaining at 1 h, 100 nM: T60 min; for remaining at 2 h, 100 nM: T120 min; for remaining at 4 h, 100 nM: T240 min
# Procedure: as §1, §2, §3
# in vivo = settings: male, Wistar, rat, iv
# [3] = Plasma and urine pharmacokinetics after I.V. bolus in rats; settings: for % excreted - endog / CLR -endog: endogenous AcSDKP subtracted; for % excreted: urine
# [4] = with captopril 10 μM, + captopril 10 μM
# [5] = Group 1, i.v. bolus, without captopril, mean
# [6] = Group 1, i.v. bolus, without captopril, single rats
# [7] = Group 2, i.v. bolus, with captopril, 2-4 h, single rats
# [8] = Group 2, i.v. bolus, with captopril, mean
# [9] = Group 2, i.v. bolus, with captopril, single rats
# [10] = summarizing table, rats, i.v. bolus, with captopril
# [11] = summarizing table, rats, i.v. bolus, without captopril
smiles,measurement,setting,value
"CC(=O)N[C@@H](CO)C(=O)N[C@@H](CC(=O)O)C(=O)N[C@@H](CCCCN)C(=O)N1CCC[C@H]1C(=O)O [AcSDKP, N-acetyl-Ser-Asp-Lys-Pro] (Ac-SDKP-OH; C-terminus assumed)",degradation by ACE of human origin,human ACE [1],degraded
same,"remaining at 10 min, 100 nM",human ACE [2]; [4],90%
same,"remaining at 0.5 h, 100 nM",human ACE [2]; [4],100%
same,"remaining at 1 h, 100 nM",human ACE [2]; [4],85%
same,"remaining at 2 h, 100 nM",human ACE [2]; [4],85%
same,"remaining at 4 h, 100 nM",human ACE [2]; [4],100%
same,"remaining at 10 min, 100 nM",human ACE [2]; without captopril,82%
same,"remaining at 0.5 h, 100 nM",human ACE [2]; without captopril,75%
same,"remaining at 1 h, 100 nM",human ACE [2]; without captopril,50%
same,"remaining at 2 h, 100 nM",human ACE [2]; without captopril,25%
same,"remaining at 4 h, 100 nM",human ACE [2]; without captopril,7%
same,Vd,in vivo; plasma,0.353 L/kg
same,level at time molar at 5 min,in vivo; plasma,5660 nM
same,level at time molar at 10 min,in vivo; plasma,4980 nM
same,level at time molar at 0.25 h,in vivo; plasma,4040 nM
same,level at time molar at 1 h,in vivo; plasma,1000 nM
same,level at time molar at 2 h,in vivo; plasma,218 nM
same,level at time molar at 3 h,in vivo; plasma,60 nM
same,level at time molar at 4 h,in vivo; plasma,22 nM
same,level at time molar at 5 h,in vivo; plasma,11 nM
same,level at time molar at 5 min,"in vivo; plasma, 1.2 mg/kg",1820 nM
same,level at time molar at 10 min,"in vivo; plasma, 1.2 mg/kg",514 nM
same,level at time molar at 0.25 h,"in vivo; plasma, 1.2 mg/kg",194 nM
same,level at time molar at 0.5 h,"in vivo; plasma, 1.2 mg/kg",38 nM
same,level at time molar at 1 h,"in vivo; plasma, 1.2 mg/kg",8.2 nM
same,level at time molar at 2 h,"in vivo; plasma, 1.2 mg/kg",2.2 nM
same,CL renal,"in vivo; urine and plasma, 1 mg/kg",11.2 mL/min/kg
same,dose excreted,"in vivo; urine, 1.2 mg/kg",10.1%
same,Q in urine,"[3]; Group 1, i.v. bolus, without captopril, 0-2 h, single rats",25.1 nmol and 0.0 nmol and 46.7 nmol and 0.1 nmol
same,Q in urine,"[3]; Group 1, i.v. bolus, without captopril, 2-4 h, single rats",7.1 nmol and 0.0 nmol and 15.7 nmol and 36.4 nmol
same,Q in urine,"[3]; Group 1, i.v. bolus, without captopril, 4-5 h, single rats",33.5 nmol and 51.3 nmol and 0.0 nmol and 14.6 nmol
same,Q in urine,"[3]; Group 1, i.v. bolus, without captopril, 5-24 h, single rats",9.9 nmol and 10.2 nmol and 0.0 nmol and 20.6 nmol and 78.5 nmol
same,Q in urine,"[3]; Group 1, i.v. bolus, without captopril, 24-36 h, single rats",4.1 nmol and 3.4 nmol and 15.5 nmol and 0.9 nmol
same,Q in urine,"[3]; Group 1, i.v. bolus, without captopril, 36-48 h, single rats",4.0 nmol and 1.7 nmol and 3.4 nmol and 2.0 nmol and 7.9 nmol
same,Concentration in plasma,"[3]; Group 1, i.v. bolus, without captopril, 5 min, single rats",2188 nM and 1759 nM and 1239 nM and 2100 nM and 1802 nM
same,Concentration in plasma,"[3]; Group 1, i.v. bolus, without captopril, 10 min, single rats",729 nM and 400 nM and 265 nM and 671 nM and 508 nM
same,Concentration in plasma,"[3]; Group 1, i.v. bolus, without captopril, 15 min, single rats",268 nM and 96 nM and 135 nM and 328 nM and 143 nM
same,Concentration in plasma,"[3]; Group 1, i.v. bolus, without captopril, 30 min, single rats",34 nM and 14 nM and 10 nM (2×) and 121 nM
same,Concentration in plasma,"[3]; Group 1, i.v. bolus, without captopril, 60 min, single rats",5 nM and 0.36 nM and 0.15 nM and 33 nM and 2 nM
same,Concentration in plasma,"[3]; Group 1, i.v. bolus, without captopril, 120 min, single rats",ILQ (4×) and 2 nM
same,Concentration in plasma,"[3]; Group 1, i.v. bolus, without captopril, 180 min, single rats",ILQ
same,Concentration in plasma,"[3]; Group 1, i.v. bolus, without captopril, 240 min, single rats",ILQ
same,Concentration in plasma,"[3]; Group 1, i.v. bolus, without captopril, 300 min, single rats",ILQ
same,% excreted - endog,[3]; [5],7.86%
same,CLR -endog,[3]; [5],11.21 mL/min/kg
same,% excreted - endog,[3]; [6],8.9% and 8.0% and 5.6% and 8.3% and 8.5%
same,CLR -endog,[3]; [6],8.6 mL/min/kg and 11.1 mL/min/kg and 11.5 mL/min/kg and 11.8 mL/min/kg and 13.0 mL/min/kg
same,AUC0-inf,[3]; [5],17393 nM·min
same,CLR,[3]; [5],14.52 mL/min/kg
same,VD,[3]; [5],1.389 L/kg
same,t½,[3]; [5],6.8 min
same,AUC0-inf,[3]; [6],230401 nM·min and 16319 nM·min and 13026 nM·min and 18178 nM·min and 16223 nM·min
same,CLR,[3]; [6],10.7 mL/min/kg and 12.5 mL/min/kg and 20.3 mL/min/kg and 12.8 mL/min/kg and 16.4 mL/min/kg
same,Q in urine total,[3]; [6],83.7 nmol and 66.6 nmol and 81.3 nmol and 74.5 nmol and 86.5 nmol
same,VD,[3]; [6],0.894 L/kg and 1.07 L/kg and 1.034 L/kg and 2.6 L/kg and 1.346 L/kg
same,t½,[3]; [6],6.4 min and 4.7 min and 4.4 min and 12.8 min and 5.9 min
same,% excreted,[3]; [6],1.1% and 9.4% and 10.5% and 8.9% and 10.4%
same,Q in urine,"[3]; Group 2, i.v. bolus, with captopril, 0-2 h, single rats",0.0 nmol
same,Concentration in urine,[3]; [7],126118 nM
same,Q in urine,[3]; [7],0.2 nmol and 744.4 nmol and 820.9 nmol and 0.0 nmol and 535.3 nmol
same,Q in urine,"[3]; Group 2, i.v. bolus, with captopril, 4-6 h, single rats",0.0 nmol
same,Q in urine,"[3]; Group 2, i.v. bolus, with captopril, 6-24 h, single rats",504.6 nmol and 49.0 nmol and 219.7 nmol and 649.1 nmol and 202.3 nmol
same,Q in urine,"[3]; Group 2, i.v. bolus, with captopril, 24-30 h, single rats",1.6 nmol and 9.6 nmol and 0.0 nmol (3×)
same,Q in urine,"[3]; Group 2, i.v. bolus, with captopril, 30-48 h, single rats",8.0 nmol and 2.5 nmol and 10.6 nmol (2×) and 0.4 nmol
same,Concentration in plasma,"[3]; Group 2, i.v. bolus, with captopril, 5 min, single rats",6707 nM and 5413 nM and 5511 nM and 5293 nM and 5393 nM
same,Concentration in plasma,"[3]; Group 2, i.v. bolus, with captopril, 10 min, single rats",5920 nM and 4813 nM and 4288 nM and 5439 nM and 4445 nM
same,Concentration in plasma,"[3]; Group 2, i.v. bolus, with captopril, 15 min, single rats",5571 nM and 4016 nM and 3399 nM and 3876 nM and 3343 nM
same,Concentration in plasma,"[3]; Group 2, i.v. bolus, with captopril, 30 min, mean",2457 nM
same,Concentration in plasma,"[3]; Group 2, i.v. bolus, with captopril, 30 min, single rats",2173 nM
same,Concentration in plasma,"[3]; Group 2, i.v. bolus, with captopril, 60 min, single rats",1759 nM and 735 nM and 848 nM and 1069 nM and 590 nM
same,Concentration in plasma,"[3]; Group 2, i.v. bolus, with captopril, 120 min, single rats",501 nM and 151 nM and 145 nM and 197 nM and 97 nM
same,Concentration in plasma,"[3]; Group 2, i.v. bolus, with captopril, 180 min, single rats",159 nM and 32 nM and 39 nM and 48 nM and 21 nM
same,Concentration in plasma,"[3]; Group 2, i.v. bolus, with captopril, 240 min, single rats",52 nM and 10 nM and 18 nM and 23 nM and 7 nM
same,Concentration in plasma,"[3]; Group 2, i.v. bolus, with captopril, 300 min, single rats",26 nM and 9 nM and 6 nM and 11 nM and 4 nM
same,% excreted - endog,[3]; [8],97%
same,CLR -endog,[3]; [8],11.67 mL/min/kg
same,% excreted - endog,[3]; [9],75.3% and 85.1% and 139.3% and 90.2% and 95.1%
same,CLR -endog,[3]; [9],5.2 mL/min/kg and 13.2 mL/min/kg and 16.4 mL/min/kg and 10.1 mL/min/kg and 13.5 mL/min/kg
same,AUC0-INF,[3]; [8],224742 nM·min
same,CLR,[3]; [8],11.94 mL/min/kg
same,Vd,[3]; [8],0.515 L/kg
same,t½,[3]; [8],30.7 min
same,AUC0-INF,[3]; [9],341133 nM·min and 196456 nM·min and 200683 nM·min and 217932 nM·min and 167504 nM·min
same,CLR,[3]; [9],5.39 mL/min/kg and 13.59 mL/min/kg and 16.71 mL/min/kg and 10.09 mL/min/kg and 13.91 mL/min/kg
same,Q in urine total,[3]; [9],514.5 nmol and 805.5 nmol and 1051.2 nmol and 649.5 nmol and 748.3 nmol
same,Vd,[3]; [9],0.653 L/kg and 0.499 L/kg and 0.505 L/kg and 0.567 L/kg
same,t½,[3]; [9],35.5 min and 29.2 min and 29.5 min and 31.4 min and 28.1 min
same,% excreted,[3]; [9],78.2% and 87.7% and 142.2% and 90.4% and 97.9%
same,degradation in vivo,"[3]; rats, in the absence of captopril",rapidly degraded in vivo
same,Renal clearance,[3]; [10],11.7 mL/min/kg
same,T ½ life,[3]; [10],30.7 min
same,Total clearance,[3]; [10],11.9 mL/min/kg
same,T ½ life,[3]; [11],6.8 min
same,Total clearance,[3]; [11],144.4 mL/min/kg
